Experimental data as given in ChEMBL document CHEMBL1140446, “Designed multiple ligands. An emerging drug discovery paradigm” (J Med Chem, 2005).
pIC50: −log10 of the molar value.

Key:
Endothelin-1 receptor = target: T1, Endothelin-1 receptor (Homo sapiens, UniProt P25101); experiment: Inhibitory concentration against endothelin receptor type A
T1 sequence (P25101 whole entry): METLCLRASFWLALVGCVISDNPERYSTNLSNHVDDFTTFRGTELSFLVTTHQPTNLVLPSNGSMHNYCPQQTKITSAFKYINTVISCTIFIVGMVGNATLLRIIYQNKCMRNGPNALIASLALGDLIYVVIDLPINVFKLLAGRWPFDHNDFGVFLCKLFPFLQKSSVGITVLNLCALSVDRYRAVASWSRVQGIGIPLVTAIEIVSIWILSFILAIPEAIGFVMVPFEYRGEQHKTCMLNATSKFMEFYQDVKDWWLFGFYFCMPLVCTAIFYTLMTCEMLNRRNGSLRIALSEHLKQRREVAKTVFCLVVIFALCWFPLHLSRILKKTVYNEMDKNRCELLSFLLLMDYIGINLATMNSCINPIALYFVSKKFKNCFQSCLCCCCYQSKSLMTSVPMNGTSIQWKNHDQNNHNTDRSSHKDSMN

[1] = target: Endothelin receptor type B (Homo sapiens, UniProt P24530)
Sequence of Endothelin receptor type B (P24530 whole entry): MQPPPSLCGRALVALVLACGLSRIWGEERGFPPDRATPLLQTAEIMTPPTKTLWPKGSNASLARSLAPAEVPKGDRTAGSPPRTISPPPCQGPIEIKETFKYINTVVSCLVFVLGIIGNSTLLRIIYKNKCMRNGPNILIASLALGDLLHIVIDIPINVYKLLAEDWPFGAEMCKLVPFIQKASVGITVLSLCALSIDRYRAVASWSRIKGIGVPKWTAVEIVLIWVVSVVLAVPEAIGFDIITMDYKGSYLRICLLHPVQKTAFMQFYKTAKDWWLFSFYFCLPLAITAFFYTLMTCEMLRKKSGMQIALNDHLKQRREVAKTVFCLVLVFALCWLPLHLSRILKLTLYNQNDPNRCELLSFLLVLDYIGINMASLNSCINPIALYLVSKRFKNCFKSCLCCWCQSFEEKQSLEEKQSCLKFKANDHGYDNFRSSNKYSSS
Description: Inhibitory concentration against endothelin receptor type B

[2] = target: T2, Type-2 angiotensin II receptor (Homo sapiens, UniProt P50052)
T2 sequence (P50052 whole entry): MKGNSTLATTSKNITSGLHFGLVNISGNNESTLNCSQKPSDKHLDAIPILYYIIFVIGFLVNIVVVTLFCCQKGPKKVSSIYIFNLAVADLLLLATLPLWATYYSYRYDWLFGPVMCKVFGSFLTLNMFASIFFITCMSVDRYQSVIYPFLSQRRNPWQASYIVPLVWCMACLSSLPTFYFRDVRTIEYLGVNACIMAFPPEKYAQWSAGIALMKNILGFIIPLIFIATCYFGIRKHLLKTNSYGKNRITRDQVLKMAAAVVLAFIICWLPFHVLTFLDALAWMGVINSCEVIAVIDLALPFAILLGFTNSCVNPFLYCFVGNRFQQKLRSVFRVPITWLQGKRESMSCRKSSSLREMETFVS
Description: Inhibitory concentration against angiotensin II receptor, type 2

[3] = target: T3, Type-1 angiotensin II receptor (Homo sapiens, UniProt P30556)
T3 sequence (P30556 whole entry): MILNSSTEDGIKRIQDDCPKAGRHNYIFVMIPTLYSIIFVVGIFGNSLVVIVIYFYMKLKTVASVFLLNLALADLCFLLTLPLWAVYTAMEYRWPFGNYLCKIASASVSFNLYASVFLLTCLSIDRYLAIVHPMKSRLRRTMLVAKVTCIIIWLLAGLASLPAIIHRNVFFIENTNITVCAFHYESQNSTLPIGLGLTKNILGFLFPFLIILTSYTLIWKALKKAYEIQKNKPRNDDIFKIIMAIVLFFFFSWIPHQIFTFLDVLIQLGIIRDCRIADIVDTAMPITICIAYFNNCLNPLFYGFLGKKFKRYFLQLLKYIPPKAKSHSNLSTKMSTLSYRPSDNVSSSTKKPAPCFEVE
Description: Inhibitory concentration against angiotensin II receptor, type 1

With `CCCc1cc(Cn2c(CC)nc3c(C)cc(C)nc32)ccc1OC(C(=O)NS(=O)(=O)c1ccc(C(C)C)cc1)c1ccc2c(c1)OCC2` (centres undefined) the pIC50 (Endothelin-1 receptor) was 7.62, the pIC50 [1] was 7.22 and the pIC50 [2] was 7.49. The pIC50 [3] was 7.89.
